The values that follow come from PubChem BioAssay (NCI).

Each structure is given as a SMILES string. Several values for one entry are separate records, joined by “and”; a condition that tells them apart may be missing. Equal entries are not always repeated.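 48-hour exposure; five concentrations; linearly interpolated endpoints. The concentration for 50% growth inhibition is given as GI50. At the TGI there is no net growth.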

Among the test systems are HCT-15 colon; SK-MEL-28 melanoma; SK-OV-3 ovarian; SN12C renal; HOP-62 NSCLC; IGROV1 ovarian; TK-10 renal; COLO 205 colon; M14 melanoma; HL-60(TB) leukemia.
What all share (test): inhibition of tumour cell growth, NCI panel, 48 h

`Cc1ccc(-n2c(C)nc3c2C(=O)c2ccccc2C3=O)cc1`: the TGI with HCT-15 colon, in the assay with SK-MEL-28 melanoma, in the assay with SK-OV-3 ovarian, with SN12C renal, in the assay on HOP-62 NSCLC and in the assay with IGROV1 ovarian was more than 100 µM each time. Besides, the TGI is more than 100 µM in the assay with TK-10 renal, 41.8 µM with COLO 205 colon, more than 100 µM in the assay on M14 melanoma and more than 100 µM in the assay with HL-60(TB) leukemia.

Consider `COc1ccc([N+](=O)[O-])c2c(NCC(O)CO)ccnc12` (stereo not given), for which the TGI is 35.1 µM with HCT-15 colon; more than 100 µM with SK-MEL-28 melanoma; more than 100 µM in the assay on SK-OV-3 ovarian; more than 100 µM in the assay with SN12C renal; more than 100 µM in the assay with HOP-62 NSCLC; 97.5 µM in the assay on IGROV1 ovarian. Further, the TGI is more than 100 µM in the assay on TK-10 renal, 53.6 µM in the assay with COLO 205 colon, more than 100 µM with M14 melanoma and more than 100 µM with HL-60(TB) leukemia.

Regarding `CCC(=O)N1C/C(=C/c2ccc(OC)cc2)C(=O)/C(=C/c2ccc(OC)cc2)C1`, the GI50 is 2.03 µM in the assay with HCT-15 colon; 1.85 µM in the assay with SK-MEL-28 melanoma; 4.61 µM in the assay with SK-OV-3 ovarian; 1.78 µM in the assay on SN12C renal; 2.79 µM in the assay on HOP-62 NSCLC; 2.21 µM with IGROV1 ovarian. In addition, the GI50 with TK-10 renal was 2.72 µM; in the assay on COLO 205 colon, 1.99 µM; in the assay on M14 melanoma, 1.92 µM; in the assay on HL-60(TB) leukemia, 2.98 µM. Also, the TGI was determined as 5.31 µM in the assay on HCT-15 colon; 3.74 µM in the assay with SK-MEL-28 melanoma; 27.9 µM in the assay with SK-OV-3 ovarian; 3.51 µM in the assay on SN12C renal; 6.45 µM in the assay on HOP-62 NSCLC; 4.93 µM with IGROV1 ovarian. For the same molecule, the TGI in the assay on TK-10 renal was 6.54 µM; in the assay on COLO 205 colon, 3.65 µM; in the assay on M14 melanoma, 3.96 µM; in the assay with HL-60(TB) leukemia, 53.1 µM.

`N#CC1C(N)=NNC1c1ccc(-c2ccc(-c3nc4ccccc4o3)cc2)o1` (stereo not given): the GI50 in the assay on HCT-15 colon is 32.3 µM; in the assay on SK-MEL-28 melanoma, 26 µM; in the assay on SK-OV-3 ovarian it was 37.4 µM; in the assay with SN12C renal it was 45 µM; with HOP-62 NSCLC, more than 100 µM; in the assay with IGROV1 ovarian it was 69.4 µM. Further, the GI50 in the assay with TK-10 renal is 25.5 µM; in the assay on COLO 205 colon it was 30.9 µM; with M14 melanoma, 63.7 µM; in the assay on HL-60(TB) leukemia, 57.7 µM. Further, the TGI in the assay on HCT-15 colon, in the assay on SK-MEL-28 melanoma, with SK-OV-3 ovarian, in the assay with SN12C renal, with HOP-62 NSCLC and in the assay with IGROV1 ovarian was more than 100 µM each time. The TGI in the assay with TK-10 renal was 74.7 µM; in the assay on COLO 205 colon it was more than 100 µM; in the assay on M14 melanoma it was more than 100 µM; in the assay on HL-60(TB) leukemia, more than 100 µM.

On to `c1c[nH]c(Cc2ncc(Cc3cnc[nH]3)[nH]2)n1`, for which the TGI with HCT-15 colon is more than 100 µM; in the assay with SK-MEL-28 melanoma, more than 100 µM; in the assay with SK-OV-3 ovarian it was 86.2 µM; in the assay on SN12C renal it was more than 100 µM; in the assay on HOP-62 NSCLC, 98.6 µM; with IGROV1 ovarian, 85 µM. Further, the TGI in the assay with TK-10 renal is more than 100 µM; in the assay on COLO 205 colon it was more than 100 µM; in the assay on M14 melanoma, 36.7 µM; with HL-60(TB) leukemia, 21.5 µM.

As for `OC1CCC(Oc2cccc3cnc(Nc4ccc5nc[nH]c5c4)nc23)CC1` (stereo not given), the GI50 is 0.508 µM with HCT-15 colon; 0.791 µM in the assay with SK-MEL-28 melanoma; 3.35 µM in the assay with SK-OV-3 ovarian; 0.392 µM in the assay with SN12C renal; 0.331 µM in the assay on HOP-62 NSCLC; 0.287 µM in the assay with IGROV1 ovarian. For the same molecule, the GI50 in the assay with TK-10 renal was 0.296 µM; in the assay with COLO 205 colon it was 0.21 µM; with M14 melanoma, 0.333 µM; with HL-60(TB) leukemia, 0.155 µM. Also, the TGI in the assay with HCT-15 colon was 16.7 µM; in the assay on SK-MEL-28 melanoma, 6.83 µM; in the assay with SK-OV-3 ovarian it was 47.8 µM; in the assay with SN12C renal, 72.7 µM; with HOP-62 NSCLC, 14.9 µM; in the assay with IGROV1 ovarian, 16.6 µM. Besides, the TGI in the assay with TK-10 renal was 11.4 µM; with COLO 205 colon, 0.886 µM; in the assay with M14 melanoma, 3.11 µM; in the assay on HL-60(TB) leukemia, 0.447 µM.

On to `CN(C)CCNC(=O)c1cccc(CO)c1[N+](=O)[O-]`, for which the TGI in the assay with HCT-15 colon, in the assay on SK-MEL-28 melanoma, with SK-OV-3 ovarian, in the assay on SN12C renal, in the assay on HOP-62 NSCLC and with IGROV1 ovarian was more than 100 µM in each case. Further, the TGI in the assay on TK-10 renal, in the assay with COLO 205 colon, in the assay with M14 melanoma and in the assay on HL-60(TB) leukemia was more than 100 µM throughout.

Turning to `Nc1ccc2c(c1)[O][Sn]([c]1ccccc1)([c]1ccccc1)[O]C2=O`, the GI50 is 6.8 µM in the assay on HCT-15 colon; 5.02 µM in the assay with SK-MEL-28 melanoma; 14.7 µM in the assay on SK-OV-3 ovarian; 7.24 µM in the assay with SN12C renal; 19.6 µM in the assay with HOP-62 NSCLC; 12.4 µM with IGROV1 ovarian. Also, the GI50 in the assay on TK-10 renal was 7.34 µM; in the assay on COLO 205 colon it was 6.58 µM; in the assay on M14 melanoma, 11.2 µM; in the assay on HL-60(TB) leukemia, 2.64 µM. For the same molecule, the TGI was 17.9 µM in the assay with HCT-15 colon; 12.4 µM in the assay on SK-MEL-28 melanoma; 43.8 µM in the assay with SK-OV-3 ovarian; 20.4 µM in the assay with SN12C renal; 34.9 µM with HOP-62 NSCLC; 29.2 µM in the assay on IGROV1 ovarian. The TGI in the assay on TK-10 renal amounted to 15.6 µM; in the assay on COLO 205 colon it was 13.2 µM; with M14 melanoma, 25.4 µM; in the assay on HL-60(TB) leukemia, 10.4 µM.

Regarding `Cc1ccc(S(=O)(=O)NCCN2c3nc4ccccc4cc3Sc3cc4ccccc4nc32)cc1`, the GI50 was more than 100 µM in the assay with HCT-15 colon; more than 100 µM in the assay with SK-MEL-28 melanoma; 7.82 µM with SK-OV-3 ovarian; more than 100 µM in the assay on SN12C renal; 16.5 µM with HOP-62 NSCLC; 7.06 µM with IGROV1 ovarian. Also, the GI50 with TK-10 renal is 28.6 µM; in the assay on COLO 205 colon, more than 100 µM; in the assay with M14 melanoma it was more than 100 µM; in the assay on HL-60(TB) leukemia, more than 100 µM. The TGI in the assay on HCT-15 colon was more than 100 µM; with SK-MEL-28 melanoma, more than 100 µM; in the assay on SK-OV-3 ovarian it was 54.2 µM; in the assay with SN12C renal it was more than 100 µM; in the assay on HOP-62 NSCLC it was 98.9 µM; in the assay on IGROV1 ovarian, more than 100 µM. Further, the TGI with TK-10 renal, with COLO 205 colon, in the assay on M14 melanoma and in the assay with HL-60(TB) leukemia was more than 100 µM in each case.

With `COC(=O)/C(=N/NC(C)(C)C)C(C(=O)C=C(C)C)C(=O)C(=O)Nc1ccc(Cl)cc1C` (stereo not given), the TGI with HCT-15 colon, with SK-MEL-28 melanoma, with SK-OV-3 ovarian, in the assay with SN12C renal, with HOP-62 NSCLC and in the assay with IGROV1 ovarian was more than 100 µM each time. Further, the TGI with TK-10 renal, in the assay on COLO 205 colon, with M14 melanoma and in the assay with HL-60(TB) leukemia was more than 100 µM throughout.

With `CCN(CC)CC(C)Nc1ccc(C)c2sc3ccccc3c(=O)c12` (stereo not given), the GI50 in the assay with HCT-15 colon was 3.39 µM; in the assay with SK-MEL-28 melanoma it was 1.73 µM; in the assay on SK-OV-3 ovarian, 2.85 µM; in the assay with SN12C renal, 6.77 µM; with HOP-62 NSCLC, 2.63 µM; with IGROV1 ovarian, 3.9 µM. Also, the GI50 in the assay with TK-10 renal is 4.83 µM; in the assay with COLO 205 colon, 1.68 µM; with M14 melanoma, 1.62 µM; in the assay on HL-60(TB) leukemia it was 1.62 µM. In addition, the TGI with HCT-15 colon was 14.7 µM; with SK-MEL-28 melanoma, 3.41 µM; in the assay on SK-OV-3 ovarian it was 12.3 µM; with SN12C renal it was 21 µM; in the assay with HOP-62 NSCLC, 8.67 µM; in the assay with IGROV1 ovarian, 17.1 µM. The TGI in the assay with TK-10 renal came to 17.6 µM; in the assay with COLO 205 colon, 3.77 µM; with M14 melanoma it was 3.2 µM; with HL-60(TB) leukemia, 5.24 µM.

As for `Cn1cnc([N+](=O)[O-])c1Sc1ncnc2nc[nH]c12`, the GI50 in the assay with HCT-15 colon is 14.2 µM and 19.6 µM; with SK-MEL-28 melanoma it was 37.8 µM and 40.2 µM; in the assay on SK-OV-3 ovarian it was 0.471 µM and 0.867 µM; in the assay with SN12C renal it was 20.5 µM and 36.4 µM; with HOP-62 NSCLC it was 0.882 µM and 5.79 µM; with IGROV1 ovarian, 9.13 µM and 12.1 µM. Besides, the GI50 in the assay on TK-10 renal is 3.58 µM and 3.93 µM; in the assay with COLO 205 colon, 11.6 µM and 19.9 µM; in the assay on M14 melanoma, 0.755 µM and 2.77 µM; with HL-60(TB) leukemia, 11 µM and 16.9 µM. Also, the TGI in the assay with HCT-15 colon is more than 100 µM; in the assay on SK-MEL-28 melanoma it was more than 100 µM; with SK-OV-3 ovarian, 39.6 µM and > 100 µM; in the assay with SN12C renal it was more than 100 µM; in the assay with HOP-62 NSCLC, more than 100 µM; in the assay on IGROV1 ovarian it was more than 100 µM. Further, the TGI was more than 100 µM with TK-10 renal; 65.1 µM and > 100 µM in the assay with COLO 205 colon; 60.5 µM and > 100 µM with M14 melanoma; 71 µM and > 64.7 µM with HL-60(TB) leukemia.

Regarding `C=CCN(N=O)C(=O)N(CCC)CCCC(NC(C)=O)C(=O)NCc1ccccc1` (stereo not given), the TGI in the assay with HCT-15 colon, in the assay with SK-MEL-28 melanoma, in the assay on SK-OV-3 ovarian, in the assay with SN12C renal, in the assay on HOP-62 NSCLC and with IGROV1 ovarian was more than 100 µM in each case. In addition, the TGI in the assay with TK-10 renal, with COLO 205 colon, in the assay with M14 melanoma and in the assay on HL-60(TB) leukemia was more than 100 µM each time.

For the molecule `COC(=O)c1ccc2c(c1)c1c(C)c3cnccc3c(C)c1n2C`, the GI50 in the assay with HCT-15 colon is 0.0394 µM; in the assay on SK-MEL-28 melanoma, 0.0951 µM; in the assay on SK-OV-3 ovarian it was 0.107 µM; in the assay on SN12C renal it was 0.044 µM; in the assay on HOP-62 NSCLC, 0.0538 µM; in the assay with IGROV1 ovarian it was 0.0323 µM. Further, the GI50 in the assay with TK-10 renal is 0.277 µM; in the assay on COLO 205 colon, 0.0387 µM; in the assay on M14 melanoma, 0.0622 µM; in the assay on HL-60(TB) leukemia, 0.243 µM. The TGI in the assay with HCT-15 colon stood at 1.38 µM; in the assay on SK-MEL-28 melanoma, 0.444 µM; with SK-OV-3 ovarian it was 0.527 µM; in the assay with SN12C renal, 1.3 µM; in the assay on HOP-62 NSCLC it was 0.995 µM; with IGROV1 ovarian, 0.569 µM. For the same molecule, the TGI was 3.35 µM with TK-10 renal, 0.277 µM in the assay with COLO 205 colon, 0.241 µM in the assay on M14 melanoma and 1.05 µM in the assay with HL-60(TB) leukemia.
